This note sets out measurements from patent US5674864A, “N-substituted derivatives of α-mercapto alkylamines, their preparation process and the intermediates obtained, their use as medicaments and the compositions containing them” (Roussel Uclaf, priority 1990, dated 1997).

The target of one assay is T1, enkephalinase (Rattus norvegicus, UniProt P07861).
T1 construct: from tissue; host or cells: rat kidney, renal membrane fraction solubilised with octyl beta-D-glucopyranoside (100,000 g supernatant)
T1 sequence (P07861 1-750): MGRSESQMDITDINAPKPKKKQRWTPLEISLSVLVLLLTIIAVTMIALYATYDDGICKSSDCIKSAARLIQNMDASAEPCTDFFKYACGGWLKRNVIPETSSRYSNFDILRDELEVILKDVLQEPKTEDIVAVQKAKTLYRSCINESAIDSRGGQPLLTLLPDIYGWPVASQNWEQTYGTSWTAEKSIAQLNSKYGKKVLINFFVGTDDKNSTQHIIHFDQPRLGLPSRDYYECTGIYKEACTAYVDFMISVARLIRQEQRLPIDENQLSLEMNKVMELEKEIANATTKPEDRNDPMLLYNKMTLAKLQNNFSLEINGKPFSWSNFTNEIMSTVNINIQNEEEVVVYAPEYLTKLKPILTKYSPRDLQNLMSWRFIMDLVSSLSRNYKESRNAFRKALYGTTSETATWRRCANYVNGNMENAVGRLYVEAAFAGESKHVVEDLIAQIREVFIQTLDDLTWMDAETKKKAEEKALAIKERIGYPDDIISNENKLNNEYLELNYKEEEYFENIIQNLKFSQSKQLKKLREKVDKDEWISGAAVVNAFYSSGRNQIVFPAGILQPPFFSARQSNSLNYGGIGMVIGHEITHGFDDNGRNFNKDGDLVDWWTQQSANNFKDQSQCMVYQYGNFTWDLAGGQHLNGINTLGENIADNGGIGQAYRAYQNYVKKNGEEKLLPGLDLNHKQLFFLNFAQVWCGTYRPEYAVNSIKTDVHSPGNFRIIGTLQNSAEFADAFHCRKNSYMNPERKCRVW
Put plainly: Determination of the enkephalinase inhibiting effect. Format: biochemical. To be noted: renal membrane fraction of a rat; substrate Succinyl-Ala-Ala-Phe-amino-methylcoumarine; 37° C., 30 minutes, pH 7.5. The procedure: 1) Determination of the enkephalinase inhibiting effect
The enkephalinase activity was determined from a renal membrane fraction of a rat. The kidneys were removed on ice and homogenized in a HEPES 0.05M pH 7.5 buffer containing magnesium chloride (50 times the volume). After a first centrifugation at 1,500 g, the specific fraction was obtained from a centrifugation at 15,000 g for 20 minutes. The deposit was then washed and suspended in a HEPES buffer and kept at -20° C. An aliquot of this membrane preparation was put in the presence of octyl beta-D-glucopyranoside (50 mM as final […]) for 15 minutes at 4° C. After centrifugation at 100,000 g for one hour, the supernatant was removed and frozen in aliqots at -20° C. The concentration of proteins was determined by the method using Comassie's blue.
An aliquot of the protein fraction thus prepared was preincubated at 25° C. for 10 minutes in a HEPES 0.05M pH 7.5 buffer or in the presence of the product to be studied. The substrate added was a non-natural enkephalin of formula Succinyl-Ala-Ala-Phe-amino-methylcoumarine (reference 1) (40mM as final concentration). The incubation continued at 37° C. for 30 minutes and then the reaction was stopped by heating to 95° C. for 5 minutes and each incubate was centrifuged. A solution of amino peptidase M (4 mM as final concentration) and thiorphan (reference 2) (10^-5 M) was added to the supernatant and the mixture was taken to 37° C. for one hour. The reaction was stopped as previously described and the fluorescence of 7-amino-methyl-coumarine produced was determined. The effect of the products to be tested was determined by calculating the IC50, the concentration which inhibited the hydrolysis of the substrate by 50%.
Reference 1: R. A. Munford, P. A. Pierzchala, A-W Strauss and M. Zimmerman, Purification of a membrane-bound metalloendo peptidase from porcine kidney that degrades peptides hormones. Proc. Natl. Acad. Sci 78, No. 11, p. 6623.
Reference 2: Inhibitor of enkephalinase described in Example 20 of French Patent No. 2,480,747.

Assay [1] is described as follows: Stretchings caused by acetic acid in a mouse (analgesic activity). To be noted: 0.25 h, PO, half-an-hour before intraperitoneal acetic acid, 15 minutes observation, read-out: DA50 (dose which allows a decrease of 50% in the number of stretchings). Format: in vivo. The protocol: 2) Study of analgesic activity in a mouse Stretchings caused by acetic acid in a mouse
The test used was based on the fact indicated by KOSTER, et al [Fed. Proc. (1959), Vol. 1B, p. 412] according to which the intraperitoneal injection of acetic acid causes, in a mouse, repeated stretching and twisting movements which can persist for more than 6 hours. Analgesics prevent or lessen this syndrome which can be considered as the outward display of a widespread abdominal pain. A 1% solution of acetic acid in water was used and was administered at a volume of 10 ml/kg. The studied product was administered by buccal route half-an-hour before the acetic acid injection, the mice having gone without food for at least 6 hours. The stretchings were observed and counted for Each mouse for an observation period of 15 minutes. The results were expressed by means of the DA50, that is the dose which allows a decrease of 50% in the number of stretchings to be obtained relative to the control animals.

Another assay can be described thus: Hot-plate test. To be noted: Mus musculus, 0.5 h, po, male mice, plate at 56° C., 30 minutes after oral administration; for ED50: read-out: DA50 (dose which increased the reaction time by 50%); for ED100: read-out: DA100 (dose which increased the reaction time by 100%). Format: in vivo. The procedure: Male mice weighing 22 g were placed individually on a copper plate maintained at 56° C. by a thermostatically-controlled water bath. […] The reaction time to the heat stimulus was noted and only animals reacting within 4.5 and 6.5 seconds were retained. The reaction time to the pain was measured 30 minutes after oral administration. The variations in the reaction time were expressed as a percentage of the initial time. The DA50 and DA100, or doses which increased the reaction time by 50 and 100%, taking into account variations in the control group, were determined by a graph or by the method of the least squares.

For the compound `CN(O)C(=O)NC(CS)Cc1ccccc1` (single isomer, unassigned; (+)) [Example 6, (+) N-hydroxy-N'-[2-mercapto-1-(phenylmethyl)-ethyl]-N-methyl urea], half-maximal inhibition against enkephalinase (IC50) required 3.5 nM.

On to `O=C(Nc1ccccc1)NC(CS)Cc1ccccc1` (single isomer, unassigned; (+)) [Example 16], for which it took 70 nM to reach half-maximal inhibition against enkephalinase (IC50). In addition, the ED50 in assay [1] was 50 mg/kg.

Regarding `COC(=O)CNC(=O)NC(CSC(C)=O)Cc1ccccc1` (stereo not drawn) [Example 11, Methyl N-[[[2-(acetylthio)-1-(phenylmethyl)-ethyl]-amino]-carbonyl]-glycinate], the results for the ED50 (in the assay “Hot-plate test”; in assay [1]) were 100 mg/kg and 85 mg/kg, respectively.

As for `CC(=O)SCC(Cc1ccccc1)NC(=O)N(C)O` (stereo not drawn) [Example 5], in “Hot-plate test”, the ED50 was found to be 100 mg/kg and the ED100 worked out at 200 mg/kg.

On to `CCCN(CCC)C(=O)NC(CS)Cc1ccccc1` (single isomer, unassigned; (+)) [Example 18, (+) N,N-dipropyl-N'-[2-mercapto-1-(phenylmethyl)-ethyl]urea], for which the ED50 (in the assay “Hot-plate test”; in assay [1]) was 33 mg/kg throughout. Besides, the ED100 in the assay “Hot-plate test” came out at 100 mg/kg. Further, at enkephalinase, the concentration for half-maximal inhibition (IC50) amounted to 180 nM.

In turn, `CC(=O)SCC(Cc1ccccc1)NC(=O)Nc1ccccc1` (stereo not drawn) [Example 15, S-[2-(3-phenyl-ureido)-3-phenylpropyl]ethanethioate] gave an IC50 at enkephalinase of 100 nM.

`CONC(=O)NC(CSC(C)=O)Cc1ccccc1` (stereo not drawn) [Example 1, S-[2-(3-methoxy-ureido)-3-phenyl-propyl]-ethanethioate] had an IC50 at enkephalinase of 87 nM. In addition, the ED50 in assay [1] was 71 mg/kg.

As to `CCCN(CCC)C(=O)NC(CSC(C)=O)Cc1ccccc1` (stereo not drawn) [Example 17, S-[2-[3-bis(propyl)-ureido]-3-phenyl-propyl]-ethanethioate], on enkephalinase, the IC50 worked out at 48 nM.

A word on the IC50: it is the concentration at which inhibition is half-maximal. A high value points to weaker potency.
